{"source": "patent US7592326B2", "about": "“Method for stimulating the immune, inflammatory or neuroprotective response” (priority 2004, dated 2009)", "key": {"[1]": {"system": "autologous or allogeneic PBMC", "test": "Mixed leukocyte reaction with irradiated DCs ([3H]thymidine incorporation)", "format": "cell-based, human", "details": "100 μM c-di-GMP-treated immature DCs", "experimental": "DCs were stimulated for 24 h with c-di-GMP or LPS and were then extensively washed and suspended in RPMI 1640 supplemented with 10% human serum, L-glutamine, and penicillin/streptomicin, irradiated (3,000 rad from a ^137Cs source) and added in graded doses to 1×10^5 responder T cells in 96 flat-bottom microplates. Responder cells were autologous or allogeneic PBMC. After 5 days, cultures were pulsed for 18 h with 0.5 µCi/well of [^3H]thymidine. Cells were then harvested onto glass fiber filters, and [^3H]thymidine incorporation was measured by liquid scintillation spectroscopy."}, "[2]": {"system": "ERK", "test": "Western blot signaling in human DCs: ERK", "format": "cell-based", "details": "data not shown", "experimental": "Human PBMC were isolated by Ficoll density gradient centrifugation from leukopacks supplied by the Department of Transfusion Medicine (Clinical Center, National Institute of Health, Bethesda, Md.). Monocytes were purified (>95%) from human PBMC with MACS CD14 monocyte isolation kit (Miltenyi Biotech Inc., Auburn, Calif.) according to the manufacturer's instruction. DCs were generated as described previously (Yang et al., 2001). In brief, DCs were generated by incubating purified monocytes at 2×10^5/ml in RPMI 1640 containing 10% FBS, 2 mM glutamine, 25 mM HEPES, 100 U/ml penicillin, 100 ug/ml streptomycin, 50 ng/ml recombinant human GM-CSF (PeproTech, Rocky Hill, N.J.), and 50 ng/ml recombinant human IL-4 (PeproTech) at 37° C. in a CO2 (5%) incubator for 7 days. On day 3 and 5 of the incubation, half of the culture medium was replaced with pre-warmed (37° C.) fresh GM-CSF- and IL-4-containing medium. On day 7, DCs were collected, washed three times with PBS, and serum-starved for 8 hours by incubating in serum-free RPMI-1640 containing GM-CSF and IL-4 (2×10^5/ml) at 37° C. in a CO2 (5%) incubator. Subsequently, DCs (2×10^6/sample) were incubated at 37° C. in the absence or presence of c-di-GMP or GMP (Sigma, St. Louis, Mo.) at concentrations specified for 5 or 30 minutes. […]"}, "[3]": {"system": "ERK", "test": "Western blot signaling in human macrophages: ERK", "format": "cell-based", "experimental": "Preparation of macrophages was performed as previously described (Akagawa et al., 1996). Briefly, fully differentiated macrophages from human PBMC were isolated from leukapheresis preparations obtained by the Blood Bank, Clinical Center, National Institutes of Health, Bethesda, Md. The leukocyte-rich preparation was overlaid on Accu-prep in 50 ml tubes and the tubes were centrifuged at 800 × g for 20 min at room temperature. PBMC fractions were collected, washed once with PBS at room temperature and twice with complete medium at 4° C. and resuspended in the same medium. Monocytes were further purified by using iso-osmotic Percoll gradient (Amersham Biosciences). At this stage, the purity of monocytes was higher than 90%. One and half million cells were placed on a 12-well plate in 1.5 ml RPMI1640 containing 50 ng/ml human M-CSF. On day 4, 1 ml of the medium was replaced with 1 ml of fresh medium containing 50 ng human M-CSF. On day 7, non-adherent cells were washed out and adherent cells were used as macrophages.\nWestern blot analysis of macrophages was performed as previously described (Matsuyama et al., 2003). Briefly, prepared macrophages were starved in RPMI 1640 without FCS for 10 h. Cells were rinsed three times with PBS, and treated with cyclic dinucleotide for various times. Cells were lysed on ice for 20 min in a buffer containing 50 mM NaCl, 20 mM Tris-HCl, 50 mM sodium fluoride, 30 mM Na4P207, 5 mM EGTA, 3 mM sodium orthovanadate, 1% Triton X-100, 1 mg/ml leupeptin, 1 mM PMSF, 1 mg/ml aprotinin, 1 mg/ml pepstatin A and 100 mM sodium orthovanadate pre-treated with H202. The lysates were spun in a microcentrifuge for 20 min and the supernatants were collected. Proteins were analyzed on 12% polyacrylamide gels by SDS-PAGE and transferred electrophoretically to nitrocellulose membranes at 150 mA for 1 h in a semi-dry system. The membranes were incubated with an antibody against either phosphorylated or nonphosphorylated p38 MAP kinase or ERK, followed by an appropriate secondary Ab coupled with horseradish peroxidase. […]"}, "[4]": {"system": "P. carinii", "format": "in vivo, Pneumocystis carinii", "details": "C57BL/6 mice pretreated 48- and 24 h prior to infection"}, "[5]": {"system": "S. aureus", "details": "cited from earlier work"}, "[6]": {"system": "Murine splenic DCs", "test": "Activation of murine splenic DCs", "details": "200 uM, 24 h"}}, "data": [{"smiles": "Nc1nc(=O)c2ncn([C@@H]3OC4COP(=O)(O)O[C@H]5[C@@H](O)[C@H](n6cnc7c(=O)nc(N)[nH]c76)O[C@@H]5COP(=O)(O)OC4C3O)c2[nH]1", "note": "(some centres unmarked) [c-di-GMP, Bis(3′→5′)-cyclic diguanylic acid]", "values": [{"measurement": "autologous T cell proliferation, increase compared to untreated DCs", "setting": "[1]; FIG. 4A", "result": "five-fold"}, {"measurement": "heterologous T cell proliferation, increase compared to untreated DCs", "setting": "[1]; FIG. 4B", "result": "two-fold"}, {"measurement": "activation of ERK", "setting": "[2]", "result": "did not activate"}, {"measurement": "ERK phosphorylation", "setting": "[3]; 10- and 100 uM, human macrophages, FIG. 13B", "result": "activate"}, {"measurement": "time of peak ERK phosphorylation", "setting": "[3]; absent at 20 min", "result": 5, "unit": "min"}, {"measurement": "magnitude of ERK phosphorylation relative to LPS", "setting": "[3]; under the conditions tested", "result": "weaker"}, {"measurement": "survival", "setting": "[4]", "result": "increased survival"}, {"measurement": "colonization of the mouse mammary glands by S. aureus", "setting": "[5]; intramammary, at time of challenge and 4 h post-inoculation", "result": "significantly decreased"}, {"measurement": "in-vivo dose giving maximal benefit", "setting": "[5]; previously published studies", "result": 200, "unit": "nmoles/animal"}, {"measurement": "surface expression of co-stimulatory molecules CD80 and CD86", "setting": "[6]; FIG. 9A", "result": "increase"}, {"measurement": "TNF and IL-8 protein in supernatant", "setting": "[6]; FIGS. 9B and 9C", "result": "increase"}]}]}
